test system: AR / CBP ternary complex; assay: Ternary complex formation assay (sandwich ELISA, AR capture / CBP detection) in VCaP cell lysates; type: cell-based; details: 1.5 hours treatment, sandwich ELISA (AR capture, CBP or p300 detection)
Procedure, shortened: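 VCaP cells (50K/well, 5% charcoal-stripped FBS, ≥3 days) treated with bifunctional compound for 1.5 h, then lysed 30 min at 4 °C. AR captured on anti-AR (AR 441) plates; bound CBP or p300 detected by rabbit mAb plus HRP secondary. QuantaRed chemifluorescence read at ex 570/em 585, immediately and at 5 and 15 min.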

EC50 | Compound
< 1 nM | COc1cc(OC2C(C)(C)C(NC(=O)c3ccc(N4CC(C)C(CN5CCC(n6nc(-c7cccc8cc(-c9cnn(C)c9)ncc78)c7c6CCN(C(C)=O)C7)CC5)C(C)C4)cc3)C2(C)C)ccc1C#N (stereo not shown) [Compound 441, 4-[4-[[4-[5-acetyl-3-[3-(1-methylpyrazol-4-yl)-8-isoquinolyl]-6,7-dihydro-4H-pyrazolo[4,3-c]pyridin-1-yl]-1-piperidyl]methyl]-3,5-dimethyl-1-piperidyl]-N-[3-(4-cyano-3-methoxy-phenoxy)-2,2,4,4-tetramethyl-cyclobutyl]benzamide]
< 1 nM | CC(=O)N1CCc2c(c(N3CCCc4cc(-c5cnn(C)c5)c(C(F)F)cc43)nn2C2CCC(OC3CN(c4ncc(C(=O)NC5C(C)(C)C(Oc6ccc(C#N)c(Cl)c6)C5(C)C)cn4)C3)CC2)C1 (stereo not shown) [Compound 340, 2-[3-[4-[5-acetyl-3-[7-(difluoromethyl)-6-(1-methylpyrazol-4-yl)-3,4-dihydro-2H-quinolin-1-yl]-6,7-dihydro-4H-pyrazolo[4,3-c]pyridin-1-yl]cyclohexoxy]azetidin-1-yl]-N-[3-(3-chloro-4-cyano-phenoxy)-2,2,4,4-tetramethyl-cyclobutyl]pyrimidine-5-carboxamide]
< 1 nM | CC(=O)N1CCc2c(c(N3CCCc4cc(-c5cnn(C)c5)c(C(F)F)cc43)nn2C2CCN(C3CCC4(C3)CN(c3ncc(C(=O)NC5C(C)(C)C(Oc6ccc(C#N)c(Cl)c6)C5(C)C)cn3)C4)CC2)C1 (stereo not shown) [Compound 344, 2-[6-[4-[5-acetyl-3-[7-(difluoromethyl)-6-(1-methylpyrazol-4-yl)-3,4-dihydro-2H-quinolin-1-yl]-6,7-dihydro-4H-pyrazolo[4,3-c]pyridin-1-yl]-1-piperidyl]-2-azaspiro[3.4]octan-2-yl]-N-[3-(3-chloro-4-cyano-phenoxy)-2,2,4,4-tetramethyl-cyclobutyl]pyrimidine-5-carboxamide]
< 1 nM | COc1cc(OC2C(C)(C)C(NC(=O)c3ccc(OC4CCC(N5CCC(n6nc(N7CCCc8cc(-c9cnn(C)c9)c(C(F)F)cc87)c7c6CCN(C(C)=O)C7)CC5)CC4)cc3)C2(C)C)ccc1C#N (stereo not shown) [Compound 381, 4-[4-[4-[5-acetyl-3-[7-(difluoromethyl)-6-(1-methylpyrazol-4-yl)-3,4-dihydro-2H-quinolin-1-yl]-6,7-dihydro-4H-pyrazolo[4,3-c]pyridin-1-yl]-1-piperidyl]cyclohexoxy]-N-[3-(4-cyano-3-methoxy-phenoxy)-2,2,4,4-tetramethyl-cyclobutyl]benzamide]
< 1 nM | COc1cc(OC2C(C)(C)C(NC(=O)c3ccc(N4CC(C)C(CN5CCC(n6nc(N7CCCc8cc(C#N)c(C)cc87)c7c6CCN(C(C)=O)C7)CC5)C(C)C4)cc3)C2(C)C)ccc1C#N (stereo not shown) [Compound 457, 4-[4-[[4-[5-acetyl-3-(6-cyano-7-methyl-3,4-dihydro-2H-quinolin-1-yl)-6,7-dihydro-4H-pyrazolo[4,3-c]pyridin-1-yl]-1-piperidyl]methyl]-3,5-dimethyl-1-piperidyl]-N-[3-(4-cyano-3-methoxy-phenoxy)-2,2,4,4-tetramethyl-cyclobutyl]benzamide]
10 to 100 nM | CC(=O)N1CCc2c(c(N3CCCc4cc(-c5cnn(C)c5)c(C(F)F)cc43)nn2C2CCC3(CC2)CCN(c2ncc(C(=O)NC4C(C)(C)C(Oc5ccc(C#N)c(Cl)c5)C4(C)C)cn2)C3)C1 (stereo not shown) [Compound 407, 2-[8-[5-acetyl-3-[7-(difluoromethyl)-6-(1-methylpyrazol-4-yl)-3,4-dihydro-2H-quinolin-1-yl]-6,7-dihydro-4H-pyrazolo[4,3-c]pyridin-1-yl]-2-azaspiro[4.5]decan-2-yl]-N-[3-(3-chloro-4-cyano-phenoxy)-2,2,4,4-tetramethyl-cyclobutyl]pyrimidine-5-carboxamide]
< 1 nM | COc1cc(OC2C(C)(C)C(NC(=O)c3ccc(N4CCC(N(C)C5CCC(n6nc(N7CCCc8cc(-c9cnn(C)c9)c(C(F)F)cc87)c7c6CCN(C(C)=O)C7)CC5)CC4)cc3)C2(C)C)ccc1C#N (stereo not shown) [Compound 280, 4-[4-[[4-[5-acetyl-3-[7-(difluoromethyl)-6-(1-methylpyrazol-4-yl)-3,4-dihydro-2H-quinolin-1-yl]-6,7-dihydro-4H-pyrazolo[4,3-c]pyridin-1-yl]cyclohexyl]-methyl-amino]-1-piperidyl]-N-[3-(4-cyano-3-methoxy-phenoxy)-2,2,4,4-tetramethyl-cyclobutyl]benzamide]
< 1 nM | CC(=O)N1CCc2c(c(N3CCCc4cc(-c5cnn(C)c5)c(C(F)F)cc43)nn2C2CCC3(CCCN(C4CN(c5ncc(C(=O)NC6C(C)(C)C(Oc7ccc(C#N)c(Cl)c7)C6(C)C)cn5)C4)C3)CC2)C1 (stereo not shown) [Compound 414, 2-[3-[9-[5-acetyl-3-[7-(difluoromethyl)-6-(1-methylpyrazol-4-yl)-3,4-dihydro-2H-quinolin-1-yl]-6,7-dihydro-4H-pyrazolo[4,3-c]pyridin-1-yl]-2-azaspiro[5.5]undecan-2-yl]azetidin-1-yl]-N-[3-(3-chloro-4-cyano-phenoxy)-2,2,4,4-tetramethyl-cyclobutyl]pyrimidine-5-carboxamide]
< 1 nM | CC(=O)N1CCc2c(c(N3CCCc4cc(-c5cnn(C)c5)c(C(F)F)cc43)nn2C2CCN(C3CCC(Oc4ncc(C(=O)NC5C(C)(C)C(Oc6ccc(C#N)c(Cl)c6)C5(C)C)cn4)CC3)CC2)C1 (stereo not shown) [Compound 382, 2-[4-[4-[5-acetyl-3-[7-(difluoromethyl)-6-(1-methylpyrazol-4-yl)-3,4-dihydro-2H-quinolin-1-yl]-6,7-dihydro-4H-pyrazolo[4,3-c]pyridin-1-yl]-1-piperidyl]cyclohexoxy]-N-[3-(3-chloro-4-cyano-phenoxy)-2,2,4,4-tetramethyl-cyclobutyl]pyrimidine-5-carboxamide]
< 1 nM | COc1cc(OC2C(C)(C)C(NC(=O)c3ccc(N4CCC[C@@H](N5CCC(n6nc(N7CCCc8cc(-c9cnn(C)c9)c(C(F)F)cc87)c7c6CCN(C(C)=O)C7)CC5)C4)cc3)C2(C)C)ccc1C#N (stereo partly drawn) [Compound 400, 4-[(3R)-3-[4-[5-acetyl-3-[7-(difluoromethyl)-6-(1-methylpyrazol-4-yl)-3,4-dihydro-2H-quinolin-1-yl]-6,7-dihydro-4H-pyrazolo[4,3-c]pyridin-1-yl]-1-piperidyl]-1-piperidyl]-N-[3-(4-cyano-3-methoxy-phenoxy)-2,2,4,4-tetramethyl-cyclobutyl]benzamide]
< 1 nM | CC(=O)N1CCc2c(c(N3CCCc4cc(-c5cnn(C)c5)c(C(F)F)cc43)nn2C2CN(C(=O)C3CCN(c4ncc(C(=O)NC5C(C)(C)C(Oc6ccc(C#N)c(Cl)c6)C5(C)C)cn4)CC3)C2)C1 (stereo not shown) [Compound 119, 2-[4-[3-[5-acetyl-3-[7-(difluoromethyl)-6-(1-methylpyrazol-4-yl)-3,4-dihydro-2H-quinolin-1-yl]-6,7-dihydro-4H-pyrazolo[4,3-c]pyridin-1-yl]azetidine-1-carbonyl]-1-piperidyl]-N-[3-(3-chloro-4-cyano-phenoxy)-2,2,4,4-tetramethyl-cyclobutyl]pyrimidine-5-carboxamide]
< 1 nM | CC(=O)N1CCc2c(c(N3CCCc4cc(-c5cnn(C)c5)c(C(F)F)cc43)nn2C2CN(CCC3CCN(c4ncc(C(=O)NC5C(C)(C)C(Oc6ccc(C#N)c(Cl)c6)C5(C)C)cn4)CC3)C2)C1 (stereo not shown) [Compound 162, 2-[4-[2-[3-[5-acetyl-3-[7-(difluoromethyl)-6-(1-methylpyrazol-4-yl)-3,4-dihydro-2H-quinolin-1-yl]-6,7-dihydro-4H-pyrazolo[4,3-c]pyridin-1-yl]azetidin-1-yl]ethyl]-1-piperidyl]-N-[3-(3-chloro-4-cyano-phenoxy)-2,2,4,4-tetramethyl-cyclobutyl]pyrimidine-5-carboxamide]
< 1 nM | CC(=O)N1CCc2c(c(N3CCCc4cnccc43)nn2C2CCN(CC3CCN(c4ncc(C(=O)NC5C(C)(C)C(Oc6ccc(C#N)c(Cl)c6)C5(C)C)cn4)CC3)CC2)C1 (stereo not shown) [Compound 157, 2-[4-[[4-[5-acetyl-3-(3,4-dihydro-2H-1,6-naphthyridin-1-yl)-6,7-dihydro-4H-pyrazolo[4,3-c]pyridin-1-yl]-1-piperidyl]methyl]-1-piperidyl]-N-[3-(3-chloro-4-cyano-phenoxy)-2,2,4,4-tetramethyl-cyclobutyl]pyrimidine-5-carboxamide]
< 1 nM | CC(=O)N1CCc2c(c(N3CCCc4cc(-c5cnn(C)c5)c(C(F)F)cc43)nn2C2CCC(COC3CCN(c4ncc(C(=O)NC5C(C)(C)C(Oc6ccc(C#N)c(Cl)c6)C5(C)C)cn4)CC3)CC2)C1 (stereo not shown) [Compound 173, 2-[4-[[4-[5-acetyl-3-[7-(difluoromethyl)-6-(1-methylpyrazol-4-yl)-3,4-dihydro-2H-quinolin-1-yl]-6,7-dihydro-4H-pyrazolo[4,3-c]pyridin-1-yl]cyclohexyl]methoxy]-1-piperidyl]-N-[3-(3-chloro-4-cyano-phenoxy)-2,2,4,4-tetramethyl-cyclobutyl]pyrimidine-5-carboxamide]
< 1 nM | COc1cc(OC2C(C)(C)C(NC(=O)c3cnc(N4CC5(CCC(N6CCC(n7nc(N8CCCc9cc(-c%10cnn(C)c%10)c(C)cc98)c8c7CCN(C(C)=O)C8)CC6)CC5)C4)nc3)C2(C)C)ccc1C#N (stereo not shown) [Compound 469, 2-[7-[4-[5-acetyl-3-[7-methyl-6-(1-methylpyrazol-4-yl)-3,4-dihydro-2H-quinolin-1-yl]-6,7-dihydro-4H-pyrazolo[4,3-c]pyridin-1-yl]-1-piperidyl]-2-azaspiro [3.5]nonan-2-yl]-N-[3-(4-cyano-3-methoxy-phenoxy)-2,2,4,4-tetramethyl-cyclobutyl]pyrimidine-5-carboxamide]

Compound | EC50
CC(=O)N1CCc2c(c(N3CCCc4cc(-c5cnn(C)c5)c(C(F)F)cc43)nn2C2CCN(C(=O)N3CCN(c4ncc(C(=O)NC5C(C)(C)C(Oc6ccc(C#N)c(Cl)c6)C5(C)C)cn4)CC3)CC2)C1 (stereo not shown) [Compound 112, 2-[4-[4-[5-acetyl-3-[7-(difluoromethyl)-6-(1-methylpyrazol-4-yl)-3,4-dihydro-2H-quinolin-1-yl]-6,7-dihydro-4H-pyrazolo[4,3-c]pyridin-1-yl]piperidine-1-carbonyl]piperazin-1-yl]-N-[3-(3-chloro-4-cyano-phenoxy)-2,2,4,4-tetramethyl-cyclobutyl]pyrimidine-5-carboxamide] | < 1 nM

Source: patent US20250129070A1, “BIFUNCTIONAL ANDROGEN RECEPTOR COMPOUNDS” (priority 2023, published 2025)
